Laboratory results taken from patent publication US3954871A, “1-(4-Alkylthiopheny)-2-substituted amino-alcohols and their salts” (Continental Pharma, priority 1969, dated 1976).
Counter-ions that a name gives are not always drawn. Like-named read-outs stand apart in the source and are kept apart here.

Assays:
in vivo = conditions: mouse, ip
[1] = Local anaesthesic activity; assay type: in vivo; conditions: read-out: Local anaesthesic activity ED50
mice = experiment: Anti-arrhythmic activity in mice; assay type: in vivo; conditions: Mus musculus, po, 0.5 h, read-out: Anti-arrhythmic activity: number of mice protected in relation with the number of tested mice
Description: ^(4) Number of mice protected in relation with the number of tested
mice (dose = 100 mg/kg per os; recording 30 min. after administration)

[2] = Solubility of salt in water; assay type: physicochemical
Description: To 1.20 g of 1-(3-methyl-4-methylthiophenyl)-2-isopropylaminoethanol in 40 ml of water, 1.96 ml of a 50% gluconic acid solution are added. The mixture is heated in water-bath during 1 hour at 70°, then the solution is lyophilised (2.18 g of the salt obtained are soluble in 5 ml of water and give a pH of 4.6).
To 1.2 g of 1-(3-methyl-4-methylthiophenyl)-2-isopropylaminoethanol in 32 ml of water, 0.53 g of a 85% aqueous lactic acid solution are added. The product is heated in a water-bath for 2 hours at 50°, then the solution is lyophilised. (1.55g of the salt obtained are soluble in 5 ml of water).

[3] = test system: isolated auricles of guinea pigs; conditions: dose 1.10 - 6 g/ml of bath
[4] = Peripherical vasodilatator activity (intra-arterial); assay type: in vivo; conditions: dose = 30 γ/kg intra-arterial
Excerpt: activity equal to that of papaverine; ++++ = activity higher than that of
papaverine (dose = 30 γ /kg intra-arterial)

[5] = 100 mg/kg per os, recording 30 min. after administration

With CCCCCSc1ccc(C(O)CNCCCC)cc1C (stereo not shown) [compound 104] the LD50 (in vivo) was 75 mg/kg.
Work on CCc1cc(C(O)CNC(C)CC)ccc1SC (stereo not shown) [Table III No. 51, 1-(3-Ethyl-4-methylthiophenyl)-2-secbutylaminoethanol] yielded an ED50 [1] greater than 5 mg/kg and a responders at 100 mg/kg (mice) of 60%.
Cc1cc(C(O)CN2CCC(C)CC2)ccc1SC(C)C (stereo not shown) [compound 133] showed an LD50 (in vivo) of 110 mg/kg.
With CCC(C)NCC(O)c1ccc(SC)c(C)c1 (stereo not shown) [Table III No. 33, 1-(3-Methyl-4-methylthiophenyl)-2-secbutylaminoethanol] the ED50 [1] was roughly 5 mg/kg and the responders at 100 mg/kg (mice) was 40%.
Molecule CCCCNCC(O)c1ccc(SCC)c(C)c1 (stereo not shown) [compound 80] has an ED50 [1] greater than 5 mg/kg and an LD50 (in vivo) of 110 mg/kg.
Cc1cc(C(O)CN2CCOCC2)ccc1SC(C)C (stereo not shown) [compound 126] showed an LD50 (in vivo) of 440 mg/kg.
In the case of CCc1cc(C(O)CNC(C)(C)C)ccc1SC (stereo not shown) [Table III No. 50], the ED50 [1] is reported as greater than 5 mg/kg and the responders at 100 mg/kg (mice) is reported as 50%.
In the case of CCCCSc1ccc(C(O)CNC(C)(C)C)cc1C (stereo not shown) [compound 90], the LD50 (in vivo) is reported as 91 mg/kg.
Molecule CCSc1ccc(C(O)CNC2CCCCC2)cc1C (stereo not shown) [Table IV No. 51] has an ED50 [1] greater than 5 mg/kg.
In the case of CSc1ccc(C(O)CNC(C)(C)C)cc1Cl (stereo not shown) [Table III No. 2], the responders at 100 mg/kg (mice) is reported as 10%.
In the case of CSc1ccc(C(O)CNC(C)C)cc1C (stereo not shown) [1-(3-Methyl-4-methylthiophenyl)-2-isopropylaminoethanol lact] [1-(3-Methyl-4-methylthiophenyl)-2-isopropylaminoethanol lactate], the “amount of salt soluble in 5 ml of water” value [2] is reported as no less than 1.55 g.
With CCCCSc1ccc(C(O)CN(C)C)cc1C (stereo not shown) [compound 94] the LD50 (in vivo) was 150 mg/kg.
Cc1cc(C(O)CNC2CCCCC2)ccc1SC(C)C (stereo not shown) [compound 130] gave an LD50 (in vivo) of 75 mg/kg.
Work on CSc1ccc(C(O)CNC2CCCCC2)cc1C (stereo not shown) [Table IV No. 24] yielded an ED50 [1] greater than 5 mg/kg and a responders at 100 mg/kg (mice) of 40%.
With CSc1ccc(C(O)CNC2CCCCC2)cc1C (stereo not shown) [CH3 S--, 3CH3 (amine drawn)] the “Protection against anoxia, activity” value [3] was “++”.
CCCCSc1ccc(C(O)CN2CCCCC2)cc1C (stereo not shown) [compound 93] gave an LD50 (in vivo) of 182 mg/kg.
Work on CSc1ccc(C(O)C(C)NC(C)(C)C)cc1Cl (stereo not shown) [Table III No. 3] yielded an ED50 [1] greater than 5 mg/kg, a responders at 100 mg/kg (mice) of 10% and an LD50 (in vivo) of 440 mg/kg.
For CSc1ccc(C(O)CNC(C)Cc2ccccc2)cc1Cl (stereo not shown) [Table III No. 22], the LD50 (in vivo) was 55 mg/kg.
CCSc1ccc(C(O)CNC(C)(C)C)cc1C (stereo not shown) [Table III No. 73] showed an ED50 [1] of roughly 5 mg/kg and an LD50 (in vivo) of 220 mg/kg.
In the case of CCCCCSc1ccc(C(O)CNC(C)(C)C)cc1C (stereo not shown) [compound 102], the LD50 (in vivo) is reported as 91 mg/kg.
Molecule CSc1ccc(C(O)CNC(C)Cc2ccccc2)cc1C (stereo not shown) [compound 31] has an LD50 (in vivo) of 75 mg/kg.
In the case of COc1ccc(Cc2nccc3cc(OC)c(OC)cc23)cc1OC [Papaverine, reference compound], the “Protection against anoxia, activity” value [3] is reported as 0 and the LD50 (in vivo) is reported as 300 mg/kg.
In the case of Cc1cc(C(O)CNC(C)(C)C)ccc1SC(C)C (stereo not shown) [compound 125], the LD50 (in vivo) is reported as 150 mg/kg.
For CCSc1ccc(C(O)CNC(C)Cc2ccccc2)cc1C (stereo not shown) [compound 83], the LD50 (in vivo) was 110 mg/kg.
With CSc1ccc(C(O)CNC(C)C)cc1Cl (stereo not shown) [Table III No. 11, 1-(3-Chloro-4-methylthiophenyl)-2-isopropylaminoethanol] the “Protection against anoxia, activity” value [3] was “++”, the ED50 [1] was greater than 5 mg/kg and the responders at 100 mg/kg (mice) was 55%. For the same molecule, the LD50 (in vivo) was 150 mg/kg.
For CCCCSc1ccc(C(O)CNC(C)C(O)c2ccccc2)cc1C (stereo not shown) [Table IV No. 66], the responders at 100 mg/kg (mice) was 20%.
For CCCCCCSc1ccc(C(O)CNCCC)cc1C (stereo not shown) [compound 112], the LD50 (in vivo) was 364 mg/kg.
Work on CCC(C)NC(C)C(O)c1ccc(SC)c(Cl)c1 (stereo not shown) [Table III No. 8] yielded an LD50 (in vivo) of 150 mg/kg.
With CSc1ccc(C(O)CN2CCCCC2)cc1Cl (stereo not shown) [Table III No. 24] the LD50 (in vivo) was 364 mg/kg and the Peripherical vasodilatator activity [4] was “+ ++”.
CSc1ccc(C(O)CN2CCCCC2)cc1C (stereo not shown) [Table IV No. 8] gave an ED50 ([1]; ED50, interval in brackets) of 1.6 mg/kg and a responders at 100 mg/kg (mice; [5]) of 20%.
In the case of CCCCSc1ccc(C(O)CN2CCCC(C)C2)cc1C (stereo not shown) [compound 95], the LD50 (in vivo) is reported as 150 mg/kg.
For C=C[C@H]1C[N@@]2CC[C@H]1C[C@@H]2[C@@H](O)c1ccnc2ccc(OC)cc12 [Quinidine, reference compound], the responders at 100 mg/kg (mice; [5]) was 20%.
With CSc1c(C)cc(C(O)CN2CCCCC2)cc1Cl (stereo not shown) [compound 62] the LD50 (in vivo) was 220 mg/kg.
CSc1c(C)cc(C(O)CNC(C)C)cc1Cl (stereo not shown) [Table III No. 64] showed an ED50 [1] of 4.1 mg/kg and an LD50 (in vivo) of 182 mg/kg.
Work on CCCCCCSc1ccc(C(O)CN2CCCCC2)cc1C (stereo not shown) [compound 108] yielded an LD50 (in vivo) of 182 mg/kg.
Molecule CCCCCCCCNCC(O)c1ccc(SC(C)C)c(C)c1 (stereo not shown) [compound 131] has an LD50 (in vivo) of 86 mg/kg.
For Cc1cc(C(O)CNC(C)C)ccc1SC(C)C (stereo not shown) [compound 127], the LD50 (in vivo) was 182 mg/kg.
Molecule Cc1cc(C(O)CN2CCCCC2)ccc1SC(C)C (stereo not shown) [compound 124] has an LD50 (in vivo) of 150 mg/kg.
Work on CCC(C(O)c1ccc(SC)c(Cl)c1)N1CCOCC1 (stereo not shown) [Table III No. 28] yielded an ED50 [1] greater than 5 mg/kg.
Work on Cc1cc(C(O)CN2CCCCC2)ccc1SCC(C)C (stereo not shown) [compound 86] yielded an LD50 (in vivo) of 110 mg/kg.
Work on CSc1ccc(C(O)CN2CCC(C)CC2)cc1C (stereo not shown) [Table IV No. 27] yielded an ED50 ([1]; ED50, interval in brackets) greater than 5 mg/kg and a responders at 100 mg/kg (mice; [5]) of 20%.
For CSc1ccc(C(O)CNC(C)(C)C)cc1C (stereo not shown) [Table III No. 12], the “Protection against anoxia, activity” value [3] was “+”.
With CCCCCCCCSc1ccc(C(O)CNC(C)CC)cc1C (stereo not shown) [Table III No. 117] the responders at 100 mg/kg (mice) was 30%.
CCCCCCSc1ccc(C(O)CNC(C)(C)C)cc1C (stereo not shown) [compound 107] gave an LD50 (in vivo) of 110 mg/kg.
Work on CSc1ccc(C(O)C(C)N2CCC(C)CC2)cc1C (stereo not shown) [Table III No. 20] yielded an LD50 (in vivo) of 91 mg/kg.
For CCc1cc(C(O)CNC(C)CC)ccc1SC (stereo not shown) [compound 51], the Peripherical vasodilatator activity [4] was “+ ++”.
For CCc1cc(C(O)CNC(C)(C)C)ccc1SC (stereo not shown) [compound 50], the LD50 (in vivo) was 150 mg/kg.
In the case of CCSc1ccc(C(O)CNC2CCCCC2)cc1C (stereo not shown) [Table III No. 77], the LD50 (in vivo) is reported as 91 mg/kg.
CCCCCCCCNCC(O)c1ccc(SC)c(CC)c1 (stereo not shown) [compound 45] gave an LD50 (in vivo) of 75 mg/kg.
With CCCCNCC(O)c1ccc(SC)c(Cl)c1 (stereo not shown) [Table III No. 15] the LD50 (in vivo) was 110 mg/kg.
In the case of CSc1ccc(C(O)CNC(C)C)cc1C (stereo not shown) [Table III No. 1, 1-(3-methyl-4-methylthiophenyl)-2-isopropylaminoethanol], the “Protection against anoxia, activity” value [3] is reported as “++”, the ED50 [1] is reported as 4.5 mg/kg and the responders at 100 mg/kg (mice) is reported as 60%. It also gave an LD50 (in vivo) of 150 mg/kg.
COc1cc(C(O)CNC(C)(C)C)ccc1SC (stereo not shown) [Table IV No. 33, 1-(3-Methoxy-4-methylthiophenyl)-2-tertbutylaminoethanol hydrochloride] showed a responders at 100 mg/kg (mice) of 20%.
With CSc1ccc(C(O)CN)cc1C (stereo not shown) [compound 41] the LD50 (in vivo) was 150 mg/kg.
CCCCSc1ccc(C(O)CN2CCC(C)CC2)cc1C (stereo not shown) [Table IV No. 63] showed an ED50 ([1]; ED50, interval in brackets) of 4.1 mg/kg and a responders at 100 mg/kg (mice; [5]) of 20%.
In the case of CCCCNCC(O)c1ccc(SC(C)C)c(C)c1 (stereo not shown) [compound 129], the LD50 (in vivo) is reported as 46 mg/kg.
With CCCCNCC(O)c1ccc(SCCCC)c(C)c1 (stereo not shown) [compound 97] the LD50 (in vivo) was 110 mg/kg.
In the case of CCc1cc(C(O)CNC(C)C)ccc1SC (stereo not shown) [Table III No. 47, 1-(3-Ethyl-4-methylthiophenyl)-2-isopropylaminoethanol], the “Protection against anoxia, activity” value [3] is reported as “++” and the responders at 100 mg/kg (mice) is reported as 65%.
With CCC(C)NCC(O)c1ccc(SC)c(C)c1 (stereo not shown) [compound 33] the Peripherical vasodilatator activity [4] was “++ +”.
Molecule CSc1ccc(C(O)CNC(C)C)cc1F (stereo not shown) [Table III No. 58, 1-(3-fluoro-4-methylthiophenyl)-2-isopropylaminoethanol] has an ED50 [1] greater than 5 mg/kg and a responders at 100 mg/kg (mice) of 20%.
In the case of CSc1ccc(C(O)CN2CCCCC2)cc1C (stereo not shown) [CH3 S--, 3CH3 (amine drawn)], the “Protection against anoxia, activity” value [3] is reported as “+”.
For CC(C)NCC(O)COc1cccc2ccccc12 (stereo not shown) [Propranolol, reference compound], the “Protection against anoxia, activity” value [3] was 0, the ED50 [1] was 1.4 mg/kg and the responders at 100 mg/kg (mice) was 100%.
Work on CCCC(NC(C)CC)C(O)c1ccc(SC)c(Cl)c1 (stereo not shown) [compound 40] yielded an ED50 [1] of roughly 5 mg/kg.
For CSc1ccc(C(O)CNC(C)C)cc1C (stereo not shown) [1-(3-Methyl-4-methylthiophenyl)-2-isopropylaminoethanol gluc] [1-(3-Methyl-4-methylthiophenyl)-2-isopropylaminoethanol gluconate], the “pH of solution of salt in water” value ([2]; 2.18 g in 5 ml of water) was 4.6 and the “amount of salt soluble in 5 ml of water” value [2] was no less than 2.18 g.
In the case of CCN(CC)CCOC(=O)c1ccc(N)cc1 [Procaine, reference compound], the ED50 [1] is reported as 1.8 mg/kg.
For CCSc1ccc(C(O)CNCCc2ccccc2)cc1C (stereo not shown) [compound 81], the LD50 (in vivo) was 75 mg/kg.
Work on CCCCCCSc1ccc(C(O)CN2CCOCC2)cc1C (stereo not shown) [compound 109] yielded an LD50 (in vivo) of 600 mg/kg.
Work on CCSc1ccc(C(O)CNC(C)C)cc1C (stereo not shown) [compound 74] yielded an LD50 (in vivo) of 150 mg/kg.
Work on CCCCSc1ccc(C(O)CN2CCC(C)CC2)cc1C (stereo not shown) [compound 96] yielded an LD50 (in vivo) of 182 mg/kg.
Molecule Cc1cc(C(O)CN2CCC(C)CC2)ccc1SCC(C)C (stereo not shown) [compound 85] has an LD50 (in vivo) of 182 mg/kg.
